Assay results reported in ChEMBL document CHEMBL4765232 (J Med Chem, 2016).

Key:
[1] = test system: KARPAS-422; experiment: Antitumor activity against human KARPAS-422 cells harboring EZH2 Y641N mutant xenografted in CB17 SCID mouse assessed as tumor growth inhibition at 160 mg/kg, po BID administered for 25 days and measured post-treatment by caliper method relative to control; type: functional; details: KARPAS-422, po, 600 h, time 25 day, read-out: TGI
[2] = Clearance in Beagle dog at 1 mg/kg, iv; type: ADME, organism-based, Canis lupus familiaris; details: in vivo
[3] = Unbound clearance in Beagle dog at 1 mg/kg, iv; type: ADME, organism-based, Canis lupus familiaris; details: in vivo
[4] = Clearance in Sprague-Dawley rat at 1 mg/kg, iv relative to liver blood flow; type: ADME, organism-based; details: in vivo
[5] = Intrinsic clearance in mouse liver microsomes assessed per mg protein; type: ADME, Microsome
[6] = Intrinsic clearance in rat liver microsomes assessed per mg protein; type: ADME, Microsome
[7] = Intrinsic clearance in dog liver microsomes assessed per mg protein; type: ADME, Canis lupus familiaris, Microsome
[8] = Protein binding in mouse plasma assessed as bound fraction; type: ADME, cell-free
[9] = Protein binding in dog plasma assessed as bound fraction; type: ADME, cell-free, Canis lupus familiaris; details: read-out: PPB (converted)
[10] = biological target: CYP2D6 (Homo sapiens, UniProt P10635); experiment: Inhibition of CYP2D6 (unknown origin) at 10 uM relative to control; type: ADME
[11] = biological target: T1, CYP2C8 (Homo sapiens, UniProt P10632); experiment: Inhibition of CYP2C8 (unknown origin) at 10 uM relative to control; type: ADME
T1 sequence (P10632 whole entry): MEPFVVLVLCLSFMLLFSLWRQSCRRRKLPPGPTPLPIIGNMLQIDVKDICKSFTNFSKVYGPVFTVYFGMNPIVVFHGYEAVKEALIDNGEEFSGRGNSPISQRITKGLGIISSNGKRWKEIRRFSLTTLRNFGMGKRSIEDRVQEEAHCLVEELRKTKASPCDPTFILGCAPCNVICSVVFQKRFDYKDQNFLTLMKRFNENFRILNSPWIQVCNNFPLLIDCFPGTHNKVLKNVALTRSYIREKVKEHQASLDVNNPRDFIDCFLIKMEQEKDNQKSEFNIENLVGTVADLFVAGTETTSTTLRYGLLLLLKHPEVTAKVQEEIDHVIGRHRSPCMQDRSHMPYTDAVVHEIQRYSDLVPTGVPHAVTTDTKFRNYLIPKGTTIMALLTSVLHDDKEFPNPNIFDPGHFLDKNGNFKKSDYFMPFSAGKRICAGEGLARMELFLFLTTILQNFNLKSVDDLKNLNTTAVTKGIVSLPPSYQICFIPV

[12] = biological target: CYP2C9 (Homo sapiens, UniProt P11712); experiment: Inhibition of CYP2C9 (unknown origin) at 10 uM relative to control; type: ADME
[13] = Clearance in Balb/c mouse at 1 mg/kg, iv formulated with 5:60:35 DMA/PEG400/20% SBECD; type: ADME, organism-based; details: in vivo
[14] = Half life in Balb/c mouse plasma at 1 mg/kg, iv formulated with 5:60:35 DMA/PEG400/20% SBECD; type: ADME, organism-based
[15] = Volume of distribution at steady in Balb/c mouse at 1 mg/kg, iv formulated with 5:60:35 DMA/PEG400/20% SBECD; type: ADME, organism-based; details: in vivo, read-out: Vdss
[16] = AUC (0 to infinity) in Balb/c mouse at 100 mg/kg, po formulated in 0.5 % methyl cellulose maintained at pH 3 to 4; type: ADME, organism-based; parameters: time infinity, route oral, dose 100 mg/kg; details: in vivo, pH 3, 100 mg/kg
[17] = Unbound AUC in Balb/c mouse at 100 mg/kg, po formulated in 0.5 % methyl cellulose maintained at pH 3 to 4; type: ADME, organism-based; details: in vivo, pH 3, 100 mg/kg
[18] = Cmax in Balb/c mouse at 100 mg/kg, po formulated in 0.5 % methyl cellulose maintained at pH 3 to 4; type: ADME, organism-based; parameters: route oral, dose 100 mg/kg; details: in vivo, pH 3, 100 mg/kg
[19] = Unbound Cmax in Balb/c mouse at 100 mg/kg, po formulated in 0.5 % methyl cellulose maintained at pH 3 to 4; type: ADME, organism-based; details: in vivo, pH 3, 100 mg/kg
[20] = Oral bioavailability in Balb/c mouse at 100 mg/kg formulated in 0.5 % methyl cellulose maintained at pH 3 to 4; type: ADME, organism-based; details: in vivo, pH 3, 100 mg/kg
[21] = Fraction unbound in mouse plasma; type: ADME, cell-free
[22] = Toxicity in CB17 SCID mouse xenografted with human KARPAS-422 cells harboring EZH2 Y641N mutant assessed as effect body weight loss at 160 mg/kg, po BID administered for 25 days; type: organism-based; details: in vivo, 600 h, time 25 day
[23] = Clearance in Sprague-Dawley rat at 1 mg/kg, iv; type: ADME, organism-based; details: in vivo
[24] = Unbound clearance in Sprague-Dawley rat at 1 mg/kg, iv; type: ADME, organism-based; details: in vivo
[25] = Clearance in Beagle dog at 1 mg/kg, iv relative to liver blood flow; type: ADME, organism-based, Canis lupus familiaris; details: in vivo
[26] = Half life in Sprague-Dawley rat plasma at 1 mg/kg, iv; type: ADME, organism-based
[27] = Half life in Beagle dog plasma at 1 mg/kg, iv; type: ADME, organism-based, Canis lupus familiaris
[28] = Volume of distribution at steady state in Sprague-Dawley rat at 1 mg/kg, iv; type: ADME, organism-based; details: in vivo, read-out: Vdss
[29] = Unbound AUC in Sprague-Dawley rat at 25 mg/kg, po; type: ADME, organism-based; details: in vivo
[30] = Unbound AUC in Beagle dog at 5 mg/kg, po; type: ADME, organism-based, Canis lupus familiaris; details: in vivo
[31] = Cmax in Sprague-Dawley rat at 25 mg/kg, po; type: ADME, organism-based; parameters: route oral, dose 25 mg/kg; details: in vivo
[32] = Cmax in Beagle dog at 5 mg/kg, po; type: ADME, organism-based, Canis lupus familiaris; parameters: route oral, dose 5 mg/kg; details: in vivo
[33] = Tmax in Beagle dog at 5 mg/kg, po; type: ADME, organism-based, Canis lupus familiaris; details: in vivo
[34] = Oral bioavailability in Sprague-Dawley rat at 25 mg/kg; type: ADME, organism-based; details: in vivo
[35] = biological target: Cytochrome P450 3A4 (Homo sapiens, UniProt P08684); experiment: Time dependent inhibition of CYP3A4 (unknown origin); type: ADME
[36] = Toxicity in Sprague-Dawley rat at 100 to 600 mg/kg, po QD administered via gavage as single dose for 28 days; type: organism-based; details: in vivo, 672 h, dose 100-600 mg/kg, time 28 day
[37] = Toxicity in Beagle dog at 50 to 500 mg/kg, po BID administered via gavage […] for 28 days; type: organism-based, Canis lupus familiaris; details: in vivo, 672 h, dose 50-500 mg/kg, time 28 day
[38] = biological target: Voltage-gated inwardly rectifying potassium channel KCNH2 (Homo sapiens, UniProt Q12809)
Chain of Voltage-gated inwardly rectifying potassium channel KCNH2 (Q12809 whole entry): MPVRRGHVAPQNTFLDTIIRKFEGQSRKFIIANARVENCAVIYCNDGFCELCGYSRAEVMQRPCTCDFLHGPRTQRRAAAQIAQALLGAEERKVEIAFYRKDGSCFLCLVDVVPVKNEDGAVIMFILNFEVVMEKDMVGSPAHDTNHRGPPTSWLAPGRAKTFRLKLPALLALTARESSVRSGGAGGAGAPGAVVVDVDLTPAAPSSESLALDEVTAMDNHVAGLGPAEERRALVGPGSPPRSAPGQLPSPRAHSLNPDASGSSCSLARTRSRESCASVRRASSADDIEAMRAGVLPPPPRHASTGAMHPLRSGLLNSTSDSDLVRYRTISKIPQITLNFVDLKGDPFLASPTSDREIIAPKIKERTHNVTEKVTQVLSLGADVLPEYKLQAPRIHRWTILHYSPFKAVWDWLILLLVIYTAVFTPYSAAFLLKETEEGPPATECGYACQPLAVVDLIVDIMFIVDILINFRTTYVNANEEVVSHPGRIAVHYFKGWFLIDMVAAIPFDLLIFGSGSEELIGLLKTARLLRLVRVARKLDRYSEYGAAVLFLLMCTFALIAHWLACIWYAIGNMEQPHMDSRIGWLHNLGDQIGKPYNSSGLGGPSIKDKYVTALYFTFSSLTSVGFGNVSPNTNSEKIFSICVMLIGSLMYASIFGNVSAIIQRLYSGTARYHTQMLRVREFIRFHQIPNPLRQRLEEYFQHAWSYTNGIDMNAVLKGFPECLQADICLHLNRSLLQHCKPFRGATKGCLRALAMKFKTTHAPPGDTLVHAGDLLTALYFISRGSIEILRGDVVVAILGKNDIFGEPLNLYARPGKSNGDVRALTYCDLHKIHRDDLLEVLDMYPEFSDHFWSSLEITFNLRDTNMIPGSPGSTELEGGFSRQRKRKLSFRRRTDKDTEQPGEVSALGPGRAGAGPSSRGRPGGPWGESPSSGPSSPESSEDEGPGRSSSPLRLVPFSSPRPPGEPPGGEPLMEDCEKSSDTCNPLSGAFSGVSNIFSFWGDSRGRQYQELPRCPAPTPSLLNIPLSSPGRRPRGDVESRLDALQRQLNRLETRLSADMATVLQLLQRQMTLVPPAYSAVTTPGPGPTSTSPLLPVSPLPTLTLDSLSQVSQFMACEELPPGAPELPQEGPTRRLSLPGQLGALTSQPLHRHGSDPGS
Description: Binding affinity to human ERG

Chain of CYP2D6 (P10635 whole entry): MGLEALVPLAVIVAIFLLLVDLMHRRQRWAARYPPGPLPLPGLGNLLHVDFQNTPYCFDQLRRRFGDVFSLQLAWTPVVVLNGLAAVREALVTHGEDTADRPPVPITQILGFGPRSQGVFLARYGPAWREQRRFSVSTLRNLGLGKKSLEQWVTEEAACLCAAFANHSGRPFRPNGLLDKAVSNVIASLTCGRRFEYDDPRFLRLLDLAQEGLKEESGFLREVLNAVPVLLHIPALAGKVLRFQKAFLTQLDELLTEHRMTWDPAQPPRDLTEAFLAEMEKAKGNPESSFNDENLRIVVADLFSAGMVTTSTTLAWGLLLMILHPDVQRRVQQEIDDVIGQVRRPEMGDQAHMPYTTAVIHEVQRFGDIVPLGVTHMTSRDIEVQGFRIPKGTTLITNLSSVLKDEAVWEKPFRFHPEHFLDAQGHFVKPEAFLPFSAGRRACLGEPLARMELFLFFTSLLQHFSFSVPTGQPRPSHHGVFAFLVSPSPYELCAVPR
Chain of Cytochrome P450 3A4 (P08684 whole entry): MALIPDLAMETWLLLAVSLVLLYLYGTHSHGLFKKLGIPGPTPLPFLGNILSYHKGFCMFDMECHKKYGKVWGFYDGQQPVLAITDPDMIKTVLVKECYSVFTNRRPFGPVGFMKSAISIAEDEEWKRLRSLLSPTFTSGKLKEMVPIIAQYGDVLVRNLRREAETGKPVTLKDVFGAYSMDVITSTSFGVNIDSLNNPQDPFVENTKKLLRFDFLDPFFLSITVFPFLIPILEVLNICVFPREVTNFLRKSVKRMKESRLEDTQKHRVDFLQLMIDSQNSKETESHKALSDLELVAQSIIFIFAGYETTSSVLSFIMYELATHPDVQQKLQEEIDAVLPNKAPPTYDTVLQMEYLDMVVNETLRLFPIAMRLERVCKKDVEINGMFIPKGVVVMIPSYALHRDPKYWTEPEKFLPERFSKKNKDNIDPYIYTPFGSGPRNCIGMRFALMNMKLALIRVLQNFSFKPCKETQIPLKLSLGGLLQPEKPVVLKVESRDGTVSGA
Chain of CYP2C9 (P11712 whole entry): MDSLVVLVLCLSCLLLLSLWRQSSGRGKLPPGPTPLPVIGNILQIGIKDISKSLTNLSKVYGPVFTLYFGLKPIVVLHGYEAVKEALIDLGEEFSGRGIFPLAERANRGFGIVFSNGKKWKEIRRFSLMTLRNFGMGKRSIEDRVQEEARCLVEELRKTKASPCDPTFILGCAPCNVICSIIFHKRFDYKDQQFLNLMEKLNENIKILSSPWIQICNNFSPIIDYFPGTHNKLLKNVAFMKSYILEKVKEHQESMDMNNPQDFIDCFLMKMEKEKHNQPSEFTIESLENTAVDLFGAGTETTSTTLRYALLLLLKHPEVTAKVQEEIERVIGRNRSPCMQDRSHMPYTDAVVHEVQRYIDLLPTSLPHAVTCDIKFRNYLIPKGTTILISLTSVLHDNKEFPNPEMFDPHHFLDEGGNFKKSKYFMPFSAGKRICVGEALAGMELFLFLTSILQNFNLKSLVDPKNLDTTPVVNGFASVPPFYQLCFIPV

SMILES: COc1cc(C)[nH]c(=O)c1CNC(=O)c1c(C)n([C@H](C)C2CCN(CC(F)(F)F)CC2)c2ccccc12 [CPI-1205]
- inhibition in vivo at 160 mg/kg [1]: > 97%
- clearance [2]: 23.5 mL/min/kg
- CL free [3]: 14.5 L/h/kg
- CL [4]: 97%
- CLH [5]: 159 µL/min
- CLH [6]: 99.6 µL/min
- CLH [7]: 73.9 µL/min
- PPB [8]: 97.9%
- fraction unbound [9]: 0.097
- inhibition at 10 µM [10]: 9.5%
- inhibition at 10 µM [11]: 41%
- inhibition at 10 µM [12]: 11.1%
- clearance [13]: 36 mL/min/kg
- half-life [14]: 97.8 min
- Vd [15]: 1.36 L/kg
- AUC [16]: 88.88 µM·h
- fAUC [17]: 1.87 µM·h
- Cmax [18]: 67.4 µM
- fCmax [19]: 1.41 µM
- F [20]: 100%
- Fu [21]: 0.021%
- Activity [22]: Non-Toxic
- clearance [23]: 53.2 mL/min/kg
- CL free [24]: 31.6 L/h/kg
- CL [25]: 76%
- half-life [26]: 39.2 min
- half-life [27]: 110 min
- Vd [28]: 2.22 L/kg
- fAUC [29]: 0.713 µM·h
- fAUC [30]: 0.309 µM·h
- Cmax [31]: 5.88 µM
- Cmax [32]: 1240 nM
- Tmax [33]: 1.67 h
- F [34]: 44.6%
- TDI [35]: Not Active
- Activity [36]: Non-Toxic
- Activity [37]: Non-Toxic
- IC50 [38]: 21.3 µM
